The values that follow come from patent US9255088B2, “Premature-termination-codons readthrough compounds” (The Regents of the University of California, priority 2010, dated 2016).

The subject of assay [1] is ATMs1981 autophosphorylation in AT153LA cells (TGA). Put plainly: Flow cytometry ATMs1981 autophosphorylation (FC-ATM) in AT153LA cells. For FCATMs1981: key: the positive results on various assays are also summarized and labeled as '+'. On the set-up: FC-ATM (Delta-FI, 30 μM): unit not given here. The note with it: for FCATMs1981: summary of positive results. It is filed as cell-based, human. On the procedure:
FC-SMC1 assay was performed as recently described (Nahas et al., 2009). FC-ATM-Ser1981 assay was based on Honda's assay (Honda et al., 2009, Leukemia. 23:409-414) with modifications. In brief, cells were resuspended in PBS and radiated for 10 Gy. After 1 h, the cells were fixed and permeabilized using the FIX & PERM cell permeabilization kit (Invitrogen). The cells were then incubated with 1 μl of mouse ATM-Ser1981 antibody (Cell Signaling Technology) for 2 h at room temperature. Cells were washed and resuspended in 100 μl PBS with Alexa Fluor 488 anti-mouse IgG (Invitrogen) for 45 min. Cells were next washed and resuspended in PBS with 0.2% paraformaldehyde and analyzed using a FACSCalibur (BD).
Studies on readthrough activity of RTC#13 derivatives as measured by FC-ATMS 1981 were performed according to the procedures provided in Example 1.
These two series, 7 and 9, were tested for readthrough activity using an assay in which the ATM protein kinase activity was measured using a flow cytometry-based ATMs1981 autophosphorylation assay (FC-ATM) (Nahas, S. A; et al., Clin. Chem. 2009, 55, 463-72). […] An increased Delta-FI indicates the restoration of ATM kinase activity by a compound.
(§1) These two series, 13 and 15, were again tested for readthrough activity using the assay in which the ATM protein kinase activity was measured by functional flow cytometry (FC-ATM) (Table 4 and FIG. 12). A second assay, irradiation (1R)-induced ATMs1981 nuclear foci formation (IRIF-ATM), was also used to confirm the readthrough activity of these compounds (Table 4 and FIG. 13). Table 3 summarizes the data for the analogues 13 and 15 (at 30 μM), in which the groups R, R′, and X were varied. More detailed data are reported in FIG. 5 (for FC-ATM assay), and in FIG. 6 (for IRIF-ATM assay). […] Thus, the pyrimidinedione unit serves as a good structural replacement for the 2-imino and 2-thioxo thiazolidin-4-one units.

In assay [2] the test system is plasmid-TAT51: ATM region 5 fragment with nonsense (PTC) mutation c.5623C→T (TGA C). As to the kind of experiment: PTT-ELISA readthrough assay, plasmid-TAT51 (TGA C). The note with it: summary of positive results; plasmid not stated.
The test system of assay [3] is dystrophin in mdx myotubes (TAA). Put plainly: Dystrophin expression in mdx myotubes. Format: cell-based, mouse. The note with it: FIG. 21. On the procedure: To investigate the ability of RTC#13 and #14 to readthrough a PTC mutation in genes other than ATM, we used mdx myotubes. The mdx mouse has been widely used as a model for Duchenne muscular dystrophy. It carries a C to T transition in exon 23 of the dystrophin gene that creates a premature stop codon (TAA), resulting in an absence of dystrophin protein (Sicinski, et al., 1989, Science. 244:1578-1580). […] Muscle progenitor cells isolated from mdx mice were induced to differentiate for 24 h before addition of gentamicin or compounds RTC#13 and #14. Myotube cultures were exposed to compounds for 72 h and then analyzed for dystrophin by Western blotting. […] We next used immunoprecipitation to increase the sensitivity of the assay (FIG. 8). […] Results were consistent in multiple experiments performed.
Cells were prepared and treated with RTCs for 3 d. Dystrophin proteins were detected by Western blot analysis using immunoprecipitation. Wild-type cells were used in the experiment to localize dystrophin protein. Gentamicin was used as a positive readthrough control. […] Results were consistent in three independent experiments.
Cells were derived from limb muscle of neonatal mdx and C57 mice, as previously described (Bertoni and Rando, 2002, Hum. Gene Ther. 13:707-718). For growth, cells were plated on dishes coated with 5 µg/ml laminin (Invitrogen) and maintained in growth medium consisting of Ham's F10 nutrient mixture (Mediatech, Inc.) supplemented with 20% fetal bovine serum, penicillin, and streptomycin. Cell differentiation was induced by maintaining the cells in low serum medium (differentiation medium) consisting of DME supplemented with 2% horse serum, penicillin, and streptomycin. Myoblasts were plated in wells of 6-well dishes and were allowed to differentiate for 24 h before adding the compounds. Media was replaced every 24 h with fresh differentiation media containing the compounds. Cells were lysed 96 h after induction of differentiation (72 h after addition of the compounds). Total protein was determined and dystrophin immunoblot analysis was performed as previously described (Sicinski et al., 1989). 250 μg of total protein from each sample was immunoprecipitated using a monoclonal antibody directed toward the rod domain (MANDYS—8; 1:40; Sigma-Aldrich) of the dystrophin protein and detected by Western blotting (Barton-Davis et al., 1999, J. Clin. Invest. 104:375-381; Bertoni and Rando, 2002).
Muscle cells were induced to differentiate to allow the formation of myotubes and synthesis of dystrophin mRNA. Compounds were added 24 hrs after induction of differentiation by direct addition into the media. The media was replaced every 24 hrs with fresh differentiation media containing the appropriate concentration of compounds. Myotubes were harvested 72 hrs later (96 hrs after induction of differentiation) and analyzed for dystrophin expression by immunoblot analysis (FIG. 14).
Cultures were analyzed for dystrophin expression by immunohistochemistry.
In the experiments shown in FIG. 21, the activity of two of the analogs of RTC#13 termed RTC#BZ6 and RTC#BZ16 was investigated in myotube cultures isolated from mdx mice. Compounds were added to the differentiation media 24 hrs after induction of differentiation and replaced every 24 hrs by changing the media with new fresh media containing the appropriate concentration of RTC#13, RTC#BZ6 or RTC#BZ16. […] No dystrophin expression was detected in cells treated with vehicle only at a final concentration of 10 μM.

Assay [4] has as its system ATM-Ser1981 foci in AT153LA cells (TGA A). As to the kind of experiment: Irradiation-induced ATM-Ser1981 foci (IRIF) in AT153LA cells. For IRIF (ATMs1981): key: the positive results on various assays are also summarized and labeled as '+'. It is filed as cell-based, human. The note with it: for IR-induced ATMs1981 foci formation, readthrough activity: A-T153LA cells (TGA), FIG. 13; for IRIF-ATM (%) (30 μM): Table 4, IR-induced ATMs1981 nuclear foci formation. How it is done: To evaluate the function of RTC-induced ATM protein, we measured irradiation-induced foci (IRIF) formation of ATM-Ser1981 in the same ATI53LA cells (TGA A). […] The maximum IRIF induction achieved in A-T cells by 10 μM RTC#13 was ˜40% of wild-type level. As a positive readthrough control, 144 μM of G418 (100 μg/ml) was used to treat cells. Our previous studies had shown that, at this concentration, […] induced a maximum level of ATMs1981 IRIF (Lai et al., 2004).
Immunostaining of nuclear foci of ATM-Ser1981 was performed as previously reported (Du et al., 2007). In brief, after being treated with compound for 4 d, cells were irradiated with 2 Gy and incubated at 37° C. for 30 min. The cells were dropped onto coverslips, fixed with 4% paraformaldehyde, and permeabilized. Coverslips were blocked for 1 h and incubated with mouse anti-ATM pSer1981 for 1 h (1:500; Rockland Immunochemicals, Inc). After a second blocking, cells were stained with FITC-conjugated anti-mouse IgG (1:150; Jackson ImmunoResearch Laboratories) for 1 h and mounted onto slides.
Studies on IR-induced ATMs1981 foci formation by RTC#13 and derivatives 13a, 13b, 13d, 13e, 13f, 13g, 13h, 13i, 13j, and 13k in A-T153LA cells (TGA) were performed according to the procedures provided in Example 1.
as §1

Where [5] appears, read: Table 2, compounds 7, 30 µM, change in fluorescence intensity before and after ionizing radiation.
Where [6] appears, read: Table 4, compounds 13 and 15, 30 μM.

In the case of `N=C1NC(=O)/C(=C/c2ccc(-c3ccccc3)o2)S1` [Compound 7a, (Z)-2-imino-5-((5-phenylfuran-2-yl)methylene)thiazolidin-4-one], in assay [1] (setting [5]), the “FC-ATM (Delta-FI, 30 μM)” value is reported as “negative”. In addition, the PTT-ELISA entry in assay [2] is recorded as “+”.

As to `O=C1NC(=S)S/C1=C\c1ccc(-c2ccccc2[N+](=O)[O-])o1` [Compound 7b, (Z)-5-((5-(2-nitrophenyl)furan-2-yl)methylene)-2-thioxothiazolidin-4-one], the “FC-ATM (Delta-FI, 30 μM)” value in assay [1] (setting [5]) is recorded as “negative”. The PTT-ELISA entry in assay [2] is recorded as “+”.

`N=C1NC(=O)/C(=C/c2ccc(-c3ccccc3C(F)(F)F)o2)S1` [Compound 7d, (Z)-2-imino-5-((5-(2-(trifluoromethyl)phenyl)furan-2-yl)methylene)thiazolidin-4-one]: the “FC-ATM (Delta-FI, 30 μM)” value in assay [1] (setting [5]) was “negative”. The PTT-ELISA entry in assay [2] is listed as “+”.

Consider `COc1ccccc1-c1ccc(/C=C2\SC(=N)NC2=O)o1` [Compound 7e, (Z)-2-imino-5-((5-(2-methoxyphenyl)furan-2-yl)methylene)thiazolidin-4-one], for which the “FC-ATM (Delta-FI, 30 μM)” value in assay [1] (setting [5]) is “negative”. Besides, the PTT-ELISA result in assay [2] is given as “+”.

Take `N=C1NC(=O)/C(=C/c2ccc(-c3ccccc3Cl)o2)S1` [Compound 7f, (Z)-5-((5-(2-chlorophenyl)furan-2-yl)methylene)-2-iminothiazolidin-4-one]: the “FC-ATM (Delta-FI, 30 μM)” value in assay [1] (setting [5]) is “negative”. Also, the PTT-ELISA entry in assay [2] is “+”.

On to `N=C1NC(=O)/C(=C/c2ccc(-c3cccc(F)c3)o2)S1` [Compound 7j, (Z)-5-((5-(3-fluorophenyl)furan-2-yl)methylene)-2-iminothiazolidin-4-one], for which the “FC-ATM (Delta-FI, 30 μM)” value in assay [1] (setting [5]) was “negative”. Moreover, the PTT-ELISA entry in assay [2] is on record as “+”.

`O=C1NC(=S)S/C1=C\c1ccc(-c2ccccc2Cl)o1` [Compound 7m, (Z)-5-((5-(2-chlorophenyl)furan-2-yl)methylene)-2-thioxothiazolidin-4-one]: in assay [1], the “FC-ATM readthrough activity” value is reported as “the best of this group” and the FCATMs1981 entry was “+”. Further, the “FC-ATM (Delta-FI, 30 μM)” value in assay [1] (setting [5]) is recorded as 3.55. Further, the PTT-ELISA result in assay [2] is on record as “+”.

Take `O=C1NC(=S)S/C1=C\c1ccc(-c2ccccc2F)o1` [Compound 7n, (Z)-5-((5-(2-fluorophenyl)furan-2-yl)methylene)-2-thioxothiazolidin-4-one]: in assay [1] (setting [5]), the “FC-ATM (Delta-FI, 30 μM)” value stood at 2.86. Also, the FCATMs1981 entry in assay [1] is recorded as “+”. In assay [2], the PTT-ELISA entry is “+”.

`O=C1NC(=S)S/C1=C\c1ccc(-c2cccc(F)c2)o1` [Compound 7q, (Z)-5-((5-(3-fluorophenyl)furan-2-yl)methylene)-2-thioxothiazolidin-4-one]: in assay [1], the “FC-ATM readthrough activity” value is “the best of this group” and the FCATMs1981 result is recorded as “+”. Besides, in assay [1] (setting [5]), the “FC-ATM (Delta-FI, 30 μM)” value is on record as 3.44. Further, the PTT-ELISA result in assay [2] is given as “+”.

For `O=c1ccn(Cc2ccc(-c3ccccc3[N+](=O)[O-])o2)c(=O)[nH]1` [Compound 13a, 1-((5-(2-nitrophenyl)furan-2-yl)methyl)pyrimidine-2,4(1H,3H)-dione], the “FC-ATM (Delta-FI, 30 μM)” value in assay [1] (setting [6]) was 4.94. In addition, the FCATMs1981 entry in assay [1] is given as “+”. In assay [3], the “concentration giving the highest level of readthrough activity” value stood at 5 µM and the “dystrophin expression in mdx myotube cultures” value was “effective”. In assay [4], the “IR-induced ATMs1981 foci formation, readthrough activity” value (shortened to “IR-induced ATMs1981 foci formation”) is “statistically significant readthrough activity” and the “IRIF-ATM (%) (30 μM)” value amounted to 10.67%.

Turning to `O=c1ccn(Cc2ccc(-c3cccc(Cl)c3)o2)c(=O)[nH]1` [Compound 13i, 1-((5-(3-chlorophenyl)furan-2-yl)methyl)pyrimidine-2,4(1H,3H)-dione], the “FC-ATM (Delta-FI, 30 μM)” value in assay [1] (setting [6]) is 5.07. Also, in assay [1], the FCATMs1981 result is “+”. Further, in assay [4], the “IR-induced ATMs1981 foci formation” value is given as “statistically significant readthrough activity” and the “IRIF-ATM (%) (30 μM)” value turned out to be 11.33%.

With `N=C1NC(=O)/C(=C/c2cn(Cc3ccc(-c4ccccc4[N+](=O)[O-])o3)c(=O)[nH]c2=O)S1` [Compound 13j, (Z)-5-((2-imino-4-oxothiazolidin-5-ylidene)methyl)-1-((5-(2-nitrophenyl)furan-2-yl)methyl)pyrimidine-2,4(1H,3H)-dione], the “FC-ATM (Delta-FI, 30 μM)” value in assay [1] (setting [6]) was 2.42. Besides, the FCATMs1981 entry in assay [1] is given as “+”. For the same compound, in assay [4], the “IR-induced ATMs1981 foci formation” value is on record as “statistically significant readthrough activity” and the “IRIF-ATM (%) (30 μM)” value was 18%. In assay [4] (summary of positive results), the “IRIF (ATMs1981)” value is “+”.

For the compound `N=c1ccn(Cc2ccc(-c3ccccc3[N+](=O)[O-])o2)c(=O)[nH]1` [Compound 15a, 4-imino-1-((5-(2-nitrophenyl)furan-2-yl)methyl)-3,4-dihydropyrimidin-2(1H)-one], the “FC-ATM (Delta-FI, 30 μM)” value in assay [1] (setting [6]) is reported as “negative”. Moreover, in assay [4], the “IRIF-ATM (%) (30 μM)” value is “negative”.

Turning to `N=c1[nH]c(=O)n(Cc2ccc(-c3ccccc3[N+](=O)[O-])o2)cc1F` [Compound 15b], the “FC-ATM (Delta-FI, 30 μM)” value in assay [1] (setting [6]) is listed as “negative”. Also, in assay [4], the “IRIF-ATM (%) (30 μM)” value is recorded as “negative”.
